Results published in the supplement of paper PMC11061612.

What was measured:
[1] = test system: CW-2 (Colorectal Carcinoma); assay: Bliss excess, mean over the matrix (fraction); higher = more synergy
Procedure, shortened: (§1)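 Cell lines grown in DMEM/F12 or RPMI with 10% FBS were plated in 1536-well plates and held 24 hours at 37°C, 5% CO2 before 72 hours of exposure to two-drug dose matrices, with DMSO typically at 0.2%. CellTiter-Glo 2.0 luminescence gave viability, which was converted to inhibition. Vehicle wells were set to 0 and blank wells to 1. Combination Emax is the second-highest inhibition in the matrix, and Bliss excess is the observed combination effect minus the expected EA + EB − EA·EB, where EA and EB are the single-agent effects.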

[2] = test system: DMS-114 (Small Cell Lung Carcinoma); assay: as above
Procedure, shortened: as §1

[3] = test system: KU812 (Chronic Myelogenous Leukemia); assay: as above
Procedure, shortened: as §1

[4] = test system: KYSE-270 (Esophageal Squamous Cell Carcinoma); assay: as above
Procedure, shortened: as §1

M059J (Glioblastoma) [5] = assay: as above
Procedure, shortened: as §1

[6] = test system: MN-60 (B-Lymphoblastic Leukemia); assay: as above
Procedure, shortened: as §1

[7] = test system: MOG-G-CCM (Low Grade Glioma); assay: as above
Procedure, shortened: as §1

[8] = test system: NCCIT (Other Solid Carcinomas); assay: as above
Procedure, shortened: as §1

NCI-H2731 (Mesothelioma) [9] = assay: as above
Procedure, shortened: as §1

[10] = test system: NCI-H3122 (Lung Adenocarcinoma); assay: as above
Procedure, shortened: as §1

[11] = test system: NCI-H520 (Squamous Cell Lung Carcinoma); assay: as above
Procedure, shortened: as §1

[12] = test system: NCI-H526 (Small Cell Lung Carcinoma); assay: as above
Procedure, shortened: as §1

[13] = test system: NCI-H929 (Plasma Cell Myeloma); assay: as above
Procedure, shortened: as §1

[14] = test system: OCI-AML3 (Acute Myeloid Leukemia); assay: as above
Procedure, shortened: as §1

SJSA-1 (Osteosarcoma) [15] = assay: as above
Procedure, shortened: as §1

[16] = test system: SK-GT-4 (Esophageal Adenocarcinoma); assay: as above
Procedure, shortened: as §1

[17] = test system: ST486 (Burkitt's Lymphoma); assay: as above
Procedure, shortened: as §1

[18] = test system: T-T (Esophageal Squamous Cell Carcinoma); assay: as above
Procedure, shortened: as §1

[19] = test system: VMRC-RCZ (Kidney Carcinoma); assay: as above
Procedure, shortened: as §1

[20] = test system: COR-L279 (Small Cell Lung Carcinoma); assay: combination Emax (second highest fraction inhibited in the dose matrix, 72 h); higher = more inhibition; extreme values may be limits of the assay
Procedure, shortened: as §1

[21] = test system: CW-2 (Colorectal Carcinoma); assay: as above
Procedure, shortened: as §1

[22] = test system: DMS-114 (Small Cell Lung Carcinoma); assay: as above
Procedure, shortened: as §1

[23] = test system: KU812 (Chronic Myelogenous Leukemia); assay: as above
Procedure, shortened: as §1

[24] = test system: KYSE-270 (Esophageal Squamous Cell Carcinoma); assay: as above
Procedure, shortened: as §1

M059J (Glioblastoma) [25] = assay: as above
Procedure, shortened: as §1

[26] = test system: MN-60 (B-Lymphoblastic Leukemia); assay: as above
Procedure, shortened: as §1

[27] = test system: MOG-G-CCM (Low Grade Glioma); assay: as above
Procedure, shortened: as §1

[28] = test system: NCCIT (Other Solid Carcinomas); assay: as above
Procedure, shortened: as §1

NCI-H2731 (Mesothelioma) [29] = assay: as above
Procedure, shortened: as §1

[30] = test system: NCI-H3122 (Lung Adenocarcinoma); assay: as above
Procedure, shortened: as §1

[31] = test system: NCI-H520 (Squamous Cell Lung Carcinoma); assay: as above
Procedure, shortened: as §1

[32] = test system: NCI-H526 (Small Cell Lung Carcinoma); assay: as above
Procedure, shortened: as §1

[33] = test system: NCI-H929 (Plasma Cell Myeloma); assay: as above
Procedure, shortened: as §1

[34] = test system: OCI-AML3 (Acute Myeloid Leukemia); assay: as above
Procedure, shortened: as §1

SJSA-1 (Osteosarcoma) [35] = assay: as above
Procedure, shortened: as §1

[36] = test system: SK-GT-4 (Esophageal Adenocarcinoma); assay: as above
Procedure, shortened: as §1

[37] = test system: ST486 (Burkitt's Lymphoma); assay: as above
Procedure, shortened: as §1

[38] = test system: T-T (Esophageal Squamous Cell Carcinoma); assay: as above
Procedure, shortened: as §1

[39] = test system: VMRC-RCZ (Kidney Carcinoma); assay: as above
Procedure, shortened: as §1
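Wherever Bliss excess, mean over the matrix is given: after 72 h of two-drug dosing.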

N#Cc1cnc(Nc2cc(NC[C@H]3CNCCO3)c(C(F)(F)F)cn2)cn1 [SRA737] + Nc1ccn([C@@H]2O[C@H](CO)[C@@H](O)C2(F)F)c(=O)n1 [Gemcitabine] (first compound max 10 µM, 7x7, partner max 0.3 µM)
Bliss excess [1]: 0.0386 | Bliss excess [2]: 0.087 | Bliss excess [3]: 0.0421 | Bliss excess [4]: 0.0675 | Bliss excess (M059J (Glioblastoma) [5]): 0.0426 | Bliss excess [6]: -0.0116 | Bliss excess [7]: 0.0991 | Bliss excess [8]: 0.0492 | Bliss excess (NCI-H2731 (Mesothelioma) [9]): 0.0907 | Bliss excess [10]: 0.0479 | Bliss excess [11]: 0.0706 | Bliss excess [12]: 0.0912 | Bliss excess [13]: 0.0643 | Bliss excess [14]: -0.0422 | Bliss excess (SJSA-1 (Osteosarcoma) [15]): -0.0857 | Bliss excess [16]: 0.0313 | Bliss excess [17]: -0.006 | Bliss excess [18]: 0.144 | Bliss excess [19]: 0.0299 | combination Emax [20]: 0.986 | combination Emax [21]: 0.623 | combination Emax [22]: 0.715 | combination Emax [23]: 0.813 | combination Emax [24]: 0.991 | combination Emax (M059J (Glioblastoma) [25]): 0.794 | combination Emax [26]: 0.745 | combination Emax [27]: 0.857 | combination Emax [28]: 0.816 | combination Emax (NCI-H2731 (Mesothelioma) [29]): 0.515 | combination Emax [30]: 0.826 | combination Emax [31]: 0.892 | combination Emax [32]: 0.942 | combination Emax [33]: 0.922 | combination Emax [34]: 0.93 | combination Emax (SJSA-1 (Osteosarcoma) [35]): 0.681 | combination Emax [36]: 0.491 | combination Emax [37]: 0.968 | combination Emax [38]: 0.737 | combination Emax [39]: 0.518
